Experiment [1] addresses T1, Procollagen-lysine,2-oxoglutarate 5-dioxygenase 2 (Homo sapiens, UniProt O00469).
T1 sequence (O00469 whole entry): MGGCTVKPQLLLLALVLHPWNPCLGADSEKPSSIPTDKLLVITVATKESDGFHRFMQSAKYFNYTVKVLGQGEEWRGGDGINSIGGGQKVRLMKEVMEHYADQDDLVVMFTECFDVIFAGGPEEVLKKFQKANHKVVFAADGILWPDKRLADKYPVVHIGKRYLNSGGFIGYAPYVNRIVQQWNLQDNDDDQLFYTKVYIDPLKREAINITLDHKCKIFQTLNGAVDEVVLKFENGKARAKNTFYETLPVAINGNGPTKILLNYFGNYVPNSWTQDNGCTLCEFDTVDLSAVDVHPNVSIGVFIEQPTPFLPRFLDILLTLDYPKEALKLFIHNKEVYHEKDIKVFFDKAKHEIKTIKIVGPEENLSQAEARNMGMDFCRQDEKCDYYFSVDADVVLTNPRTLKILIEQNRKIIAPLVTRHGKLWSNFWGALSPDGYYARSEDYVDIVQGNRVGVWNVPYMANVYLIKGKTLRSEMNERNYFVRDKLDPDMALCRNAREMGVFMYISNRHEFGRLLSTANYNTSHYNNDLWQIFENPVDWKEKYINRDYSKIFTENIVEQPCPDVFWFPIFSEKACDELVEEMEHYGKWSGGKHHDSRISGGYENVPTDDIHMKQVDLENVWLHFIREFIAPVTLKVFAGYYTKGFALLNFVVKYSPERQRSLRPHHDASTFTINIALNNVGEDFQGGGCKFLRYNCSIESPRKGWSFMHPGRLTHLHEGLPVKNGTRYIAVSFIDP
In words: Inhibition of human recombinant LH2 expressed in CHO cells incubated for 30 mins by luciferase-based Succinate-GloTM JmjC Demethylase/Hydroxylase Assay. It is filed as cell-based.

Another experiment relates to 344SQ. Kind of experiment: Antiproliferative activity against mouse wild type 344SQ cells assessed as reduction in cell viability observed after 48 hrs by CCK-8 assay. Type of experiment: functional, cell-based. (In general: Tetrazolium assays rely on reduction of a dye to a coloured formazan, in cell work by metabolically active cells.)
For experiment [2], the target named is T2, Lysine-specific demethylase 4A (Homo sapiens) (UniProt O75164).
T2 sequence (whole entry): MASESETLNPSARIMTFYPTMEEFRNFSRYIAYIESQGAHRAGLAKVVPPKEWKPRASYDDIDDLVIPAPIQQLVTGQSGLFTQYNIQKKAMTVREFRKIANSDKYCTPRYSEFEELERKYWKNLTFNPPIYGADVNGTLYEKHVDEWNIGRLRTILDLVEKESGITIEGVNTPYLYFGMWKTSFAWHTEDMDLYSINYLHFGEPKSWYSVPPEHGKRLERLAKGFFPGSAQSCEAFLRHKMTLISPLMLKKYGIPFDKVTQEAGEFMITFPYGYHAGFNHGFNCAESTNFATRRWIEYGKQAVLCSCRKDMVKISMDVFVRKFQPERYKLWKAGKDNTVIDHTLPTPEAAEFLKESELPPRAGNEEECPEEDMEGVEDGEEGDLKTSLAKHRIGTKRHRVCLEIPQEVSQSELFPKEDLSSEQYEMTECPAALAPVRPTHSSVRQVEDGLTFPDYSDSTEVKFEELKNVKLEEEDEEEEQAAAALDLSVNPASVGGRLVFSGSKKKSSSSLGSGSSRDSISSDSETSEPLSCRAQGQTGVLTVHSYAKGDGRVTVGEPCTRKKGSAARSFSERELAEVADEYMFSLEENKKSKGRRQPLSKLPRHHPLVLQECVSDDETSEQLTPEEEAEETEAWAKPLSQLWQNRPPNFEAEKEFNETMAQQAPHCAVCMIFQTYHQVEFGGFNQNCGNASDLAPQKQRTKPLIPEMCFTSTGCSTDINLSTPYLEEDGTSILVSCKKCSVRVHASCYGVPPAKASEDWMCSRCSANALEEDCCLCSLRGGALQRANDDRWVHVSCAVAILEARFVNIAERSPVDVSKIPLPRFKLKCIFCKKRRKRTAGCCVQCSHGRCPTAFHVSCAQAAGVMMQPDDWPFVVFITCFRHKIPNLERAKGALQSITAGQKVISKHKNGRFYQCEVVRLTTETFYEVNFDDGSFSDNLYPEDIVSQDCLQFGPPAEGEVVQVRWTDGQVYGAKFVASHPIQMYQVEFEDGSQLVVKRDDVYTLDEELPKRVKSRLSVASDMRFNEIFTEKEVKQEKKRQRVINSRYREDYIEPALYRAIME
In words: Inhibition of JMJD2A (unknown origin) at 11 uM by Succinate-Glo kit assay.

The target in experiment [3] is T3, Procollagen-lysine,2-oxoglutarate 5-dioxygenase 1 (Homo sapiens, UniProt Q02809).
T3 sequence (Q02809 whole entry): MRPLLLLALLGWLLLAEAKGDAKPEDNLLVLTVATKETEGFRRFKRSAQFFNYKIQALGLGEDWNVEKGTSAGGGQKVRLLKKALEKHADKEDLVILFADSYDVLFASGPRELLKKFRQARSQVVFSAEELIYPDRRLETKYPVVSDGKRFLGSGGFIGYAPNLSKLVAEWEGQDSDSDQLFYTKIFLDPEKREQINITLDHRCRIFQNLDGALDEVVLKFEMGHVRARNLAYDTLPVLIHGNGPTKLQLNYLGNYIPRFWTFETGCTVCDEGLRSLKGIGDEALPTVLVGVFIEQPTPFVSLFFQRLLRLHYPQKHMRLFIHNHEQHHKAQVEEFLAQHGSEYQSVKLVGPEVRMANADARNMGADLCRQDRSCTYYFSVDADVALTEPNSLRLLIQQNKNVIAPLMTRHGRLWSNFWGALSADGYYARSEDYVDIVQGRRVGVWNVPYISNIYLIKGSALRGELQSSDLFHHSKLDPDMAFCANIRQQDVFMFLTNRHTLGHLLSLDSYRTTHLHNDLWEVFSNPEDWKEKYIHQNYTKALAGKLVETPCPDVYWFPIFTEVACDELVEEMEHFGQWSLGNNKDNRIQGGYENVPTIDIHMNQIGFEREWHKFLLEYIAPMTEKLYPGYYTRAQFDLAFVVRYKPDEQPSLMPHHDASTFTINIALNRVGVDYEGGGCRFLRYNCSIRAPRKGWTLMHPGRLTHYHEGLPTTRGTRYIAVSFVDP
Kind of experiment: Inhibition of human recombinant LH1 expressed in CHO cells incubated for 30 mins by luciferase-based Succinate-GloTM JmjC Demethylase/Hydroxylase Assay. Type of experiment: cell-based.

The species entered for experiment [4] is Homo sapiens. In words: Selectivity ratio of IC50 for inhibition of human recombinant LH3 to IC50 for inhibition of human recombinant LH2.
In experiment [5] the target is T4, Multifunctional procollagen lysine hydroxylase and glycosyltransferase LH3 (Homo sapiens, UniProt O60568).
T4 sequence (O60568 whole entry): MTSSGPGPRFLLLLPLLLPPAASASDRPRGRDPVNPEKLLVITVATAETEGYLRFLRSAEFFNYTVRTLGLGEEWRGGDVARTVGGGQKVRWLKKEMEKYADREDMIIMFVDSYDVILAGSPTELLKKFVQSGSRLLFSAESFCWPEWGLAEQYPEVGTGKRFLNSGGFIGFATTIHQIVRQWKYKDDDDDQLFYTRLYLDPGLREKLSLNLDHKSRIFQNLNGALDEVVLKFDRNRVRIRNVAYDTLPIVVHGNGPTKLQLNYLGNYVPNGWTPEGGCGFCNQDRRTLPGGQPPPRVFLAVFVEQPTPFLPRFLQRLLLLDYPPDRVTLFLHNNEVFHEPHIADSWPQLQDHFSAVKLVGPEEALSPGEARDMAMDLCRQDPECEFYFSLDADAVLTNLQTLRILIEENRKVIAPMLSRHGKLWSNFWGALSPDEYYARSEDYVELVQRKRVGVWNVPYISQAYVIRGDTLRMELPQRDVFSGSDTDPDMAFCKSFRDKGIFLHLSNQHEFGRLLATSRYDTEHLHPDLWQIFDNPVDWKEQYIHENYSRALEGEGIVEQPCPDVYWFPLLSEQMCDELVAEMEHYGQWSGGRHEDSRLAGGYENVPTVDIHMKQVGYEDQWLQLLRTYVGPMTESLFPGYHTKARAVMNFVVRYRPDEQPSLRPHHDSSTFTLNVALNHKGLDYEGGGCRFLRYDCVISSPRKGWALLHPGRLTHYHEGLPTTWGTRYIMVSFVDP
Kind of experiment: Inhibition of human recombinant LH3 expressed in CHO cells incubated for 30 mins by luciferase-based Succinate-GloTM JmjC Demethylase/Hydroxylase Assay. It is filed as cell-based.

The species named for experiment [6] is Homo sapiens. In words: Selectivity ratio of IC50 for inhibition of human recombinant LH1 to IC50 for inhibition of human recombinant LH2. As to conditions: time 30.0 min.

Calls of active or inactive are those of the source. The calls are words filed in the database; no cut-off is given here. Where only a bound is given, the exact number is not on record here.

`O=C(c1cccnc1)C1CCc2cc(Cl)ccc2C1=O` (stereo not drawn): in experiment [1] (cho), the IC50 (in general, the concentration that inhibits the measured activity by half) is reported as “Not Active”.

For `CN1CCN(c2cccc(C(=O)CC(=O)c3ccncc3)c2)CC1`, the outcome in the experiment on 344SQ was inactive.

On to `CN1CCN(c2cccc(-c3cc(-c4ccncc4)n[nH]3)c2)CC1`, for which the IC50 in experiment [1] (read-out: IC50) was greater than 10 µM.

For the compound `O=C(CC(=O)c1nnn[nH]1)c1cccc(N2CCOCC2)c1`, the IC50 in experiment [1] (read-out: IC50) is greater than 10 µM.

For `O=C(CC(=O)c1ccncc1)c1ccccc1`, the inhibition result in experiment [2] is “Active”. Also, the IC50 in experiment [3] is 6.4 µM; in experiment [5], 5.2 µM; in experiment [1] (read-out: IC50) it was 1 µM. Besides, the Selectivity ratio in the experiment filed under Homo sapiens [4] is 5; in the experiment filed under Homo sapiens [6] it was 6.

With `O=C(c1cccnc1)C1CCc2cc(F)ccc2C1=O` (stereo not drawn), the IC50 in experiment [1] (read-out: IC50) was greater than 10 µM.

Turning to `O=C(CC(=O)C(F)(F)F)c1ccc([N+](=O)[O-])cc1`, the IC50 in experiment [1] (read-out: IC50) is greater than 10 µM.

As to `O=C(CC(=O)c1cccnc1)c1ccc(C(F)(F)F)cc1`, the IC50 result in experiment [1] (cho) is on record as “Not Active”.

With `CN1CCN(c2cccc(C(=O)CC(=O)c3nnn[nH]3)c2)CC1`, in experiment [1] (read-out: IC50), the IC50 is greater than 10 µM.

Consider `Cc1ccc(C(=O)CC(=O)c2cccc(N3CCOCC3)c2)cc1`, for which the IC50 result in experiment [1] (cho) was “Not Active”.

Take `O=C(CC(=O)c1cccnc1)c1ccc([N+](=O)[O-])cc1`: the IC50 in experiment [1] (read-out: IC50) is greater than 10 µM.

Turning to `O=C(CC(=O)c1cccnc1)c1ccccc1`, in experiment [1] (read-out: IC50), the IC50 was 5 µM.

On to `c1cc(-c2cc(-c3ccncc3)n[nH]2)cc(N2CCOCC2)c1`, for which, in experiment [1] (read-out: IC50), the IC50 is greater than 10 µM.
